How the values were obtained:
Format in all cases: in vivo
[1] = system: morningglory (Ipomoea spp.); assay: Test A pre-/postemergence: morningglory
In short: (§1)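 Whole-plant greenhouse assay in loam/sand. Preemergence directed soil spray plus simultaneous postemergence spray (one- to two-leaf stage, 2–10 cm). Rated visually ~10 days later, 0 = no effect, 100 = complete control.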

[2] = system: pigweed (Amaranthus retroflexus); assay: Test C pre-/postemergence: pigweed
In short: (§2)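 Visual injury scored 0–100 (100 = complete control) against untreated controls after 13–15 greenhouse days. Surfactant-containing solvent formulations applied either to soil after sowing (loam/sand) or over 1- to 4-leaf plants, 2–18 cm tall.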

[3] = system: large crabgrass (Digitaria sanguinalis); assay: Test C pre-/postemergence: large crabgrass
In short: as §2

[4] = system: galium (catchweed bedstraw, Galium aparine); assay: Test C pre-/postemergence: galium
In short: as §2

[5] = system: barnyardgrass (Echinochloa crus-galli); assay: Test A pre-/postemergence: barnyardgrass
In short: as §1

corn (Zea mays) = assay: Test A pre-/postemergence: corn
In short: as §1

[6] = system: johnsongrass (Sorghum halepense); assay: Test C pre-/postemergence: johnsongrass
In short: as §2

kochia (Kochia scoparia) = assay: Test C pre-/postemergence: kochia; details: Postemergence
In short: as §2

[7] = system: ryegrass, Italian (Italian ryegrass, Lolium multiflorum); assay: Test C pre-/postemergence: ryegrass, Italian
In short: as §2

[8] = system: nutsedge, yellow (yellow nutsedge, Cyperus esculentus); assay: Test C pre-/postemergence: nutsedge, yellow
In short: as §2

[9] = system: winter wheat (Triticum aestivum); assay: Test C pre-/postemergence: winter wheat
In short: as §2

[10] = Postemergence, 125 g ai/ha, 0 to 100 scale, 0 is no effect, 100 is complete control
[11] = Postemergence, 500 g ai/ha, 0 to 100 scale, 0 is no effect, 100 is complete control
[12] = Preemergence, 125 g ai/ha, 0 to 100 scale where 0 is no effect and 100 is complete control
[13] = Preemergence, 500 g ai/ha, 0 to 100 scale (0 no effect, 100 complete control)
[14] = Postemergence, 31 g ai/ha, scale 0 to 100 (0 no effect, 100 complete control)
[15] = Postemergence, 62 g ai/ha, scale 0 to 100 (0 no effect, 100 complete control)
[16] = Postemergence, 125 g ai/ha, scale 0 to 100, 0 no effect, 100 complete control
[17] = Postemergence, 250 g ai/ha, scale 0 to 100 (0 no effect, 100 complete control)
[18] = Preemergence, 31 g ai/ha, scale 0 (no effect) to 100 (complete control)
[19] = Preemergence, 62 g ai/ha, scale of 0 to 100, 0 is no effect, 100 is complete control
[20] = Preemergence, 125 g ai/ha, scale 0 to 100, 0 no effect, 100 complete control
[21] = Preemergence, 250 g ai/ha, scale 0 to 100, 0 no effect, 100 complete control
[22] = Postemergence, 250 g ai/ha, scale 0 to 100
[23] = 31 g ai/ha, scale 0 to 100 (0 no effect, 100 complete control)
[24] = 62 g ai/ha, scale 0 to 100 (0 no effect, 100 complete control)
[25] = 125 g ai/ha, scale 0 to 100, 0 no effect, 100 complete control
[26] = 250 g ai/ha, scale 0 to 100 (0 no effect, 100 complete control)

Structure (SMILES): CCCc1nn(-c2ccc(F)cc2F)nc1Oc1ccnc(C(F)(F)F)c1 [Compound 179]
- Plant response rating, Morningglory [1, 10]: 100
- Morningglory plant response rating [1, 11]: 100
- Plant response rating, Morningglory [1, 12]: 40
- Plant response rating, Morningglory [1, 13]: 70
- Plant response rating, Pigweed [2, 14]: 95
- Plant response rating, Pigweed [2, 15]: 98
- Plant response rating, Pigweed [2, 16]: 98
- Plant response rating, Pigweed [2, 17]: 100
- Plant response rating, Pigweed [2, 18]: 100
- Plant response rating, Pigweed [2, 19]: 100
- Plant response rating, Pigweed [2, 20]: 100
- Plant response rating, Pigweed [2, 21]: 100
- Plant response rating, Crabgrass, Large [3, 14]: 20
- Plant response rating, Crabgrass, Large [3, 15]: 20
- Plant response rating, Crabgrass, Large [3, 16]: 35
- Plant response rating, Crabgrass, Large [3, 22]: 80
- Plant response rating, Crabgrass, Large [3, 18]: 100
- Plant response rating, Crabgrass, Large [3, 19]: 100
- Plant response rating, Crabgrass, Large [3, 20]: 100
- Plant response rating, Crabgrass, Large [3, 21]: 100
- Plant response rating, Galium [4, 14]: 90
- Plant response rating, Galium [4, 15]: 90
- Plant response rating, Galium [4, 16]: 90
- Plant response rating, Galium [4, 17]: 90
- Plant response rating, Galium [4, 18]: 80
- Plant response rating, Galium [4, 19]: 100
- Plant response rating, Galium [4, 20]: 100
- Plant response rating, Galium [4, 21]: 100
- Plant response rating, Barnyardgrass [5, 10]: 90
- Barnyardgrass plant response rating [5, 11]: 90
- Plant response rating, Barnyardgrass [5, 12]: 90
- Plant response rating, Barnyardgrass [5, 13]: 100
- Plant response rating, Corn (corn (Zea mays); [10]): 20
- Corn plant response rating (corn (Zea mays); [11]): 30
- Plant response rating, Corn (corn (Zea mays); [12]): 20
- Plant response rating, Corn (corn (Zea mays); [13]): 30
- Plant response rating, Johnsongrass [6, 14]: 10
- Plant response rating, Johnsongrass [6, 15]: 20
- Plant response rating, Johnsongrass [6, 16]: 20
- Plant response rating, Johnsongrass [6, 17]: 55
- Plant response rating, Johnsongrass [6, 18]: 5
- Plant response rating, Johnsongrass [6, 19]: 60
- Plant response rating, Johnsongrass [6, 20]: 95
- Plant response rating, Johnsongrass [6, 21]: 100
- Plant response rating, Kochia (kochia (Kochia scoparia); [23]): 80
- Plant response rating, Kochia (kochia (Kochia scoparia); [24]): 90
- Plant response rating, Kochia (kochia (Kochia scoparia); [25]): 90
- Plant response rating, Kochia (kochia (Kochia scoparia); [26]): 90
- Plant response rating, Ryegrass, Italian [7, 14]: 10
- Plant response rating, Ryegrass, Italian [7, 15]: 15
- Plant response rating, Ryegrass, Italian [7, 16]: 25
- Plant response rating, Ryegrass, Italian [7, 17]: 40
- Plant response rating, Ryegrass, Italian [7, 18]: 45
- Plant response rating, Ryegrass, Italian [7, 19]: 95
- Plant response rating, Ryegrass, Italian [7, 20]: 95
- Plant response rating, Ryegrass, Italian [7, 21]: 95
- Plant response rating, Nutsedge, Yellow [8, 14]: 5
- Plant response rating, Nutsedge, Yellow [8, 15]: 5
- Plant response rating, Nutsedge, Yellow [8, 16]: 10
- Plant response rating, Nutsedge, Yellow [8, 17]: 10
- Plant response rating, Nutsedge, Yellow [8, 18]: 0
- Plant response rating, Nutsedge, Yellow [8, 19]: 0
- Plant response rating, Nutsedge, Yellow [8, 20]: 0
- Plant response rating, Nutsedge, Yellow [8, 21]: 5
- Plant response rating, Wheat [9, 14]: 5
- Plant response rating, Wheat [9, 15]: 10
- Plant response rating, Wheat [9, 16]: 15
- Plant response rating, Wheat [9, 17]: 15
- Plant response rating, Wheat [9, 18]: 5
- Plant response rating, Wheat [9, 19]: 15
- Plant response rating, Wheat [9, 20]: 50
- Plant response rating, Wheat [9, 21]: 55

Structure (SMILES): CCc1nn(-c2ccc(C(F)(F)F)c(F)c2)nc1Oc1ccnc(C(F)(F)F)c1 [Compound 183]
- Plant response rating, Morningglory [1, 10]: 100
- Morningglory plant response rating [1, 11]: 100
- Plant response rating, Morningglory [1, 12]: 70
- Plant response rating, Morningglory [1, 13]: 90
- Plant response rating, Pigweed [2, 14]: 100
- Plant response rating, Pigweed [2, 16]: 100
- Plant response rating, Pigweed [2, 17]: 100
- Plant response rating, Pigweed [2, 18]: 100
- Plant response rating, Pigweed [2, 19]: 100
- Plant response rating, Pigweed [2, 20]: 100
- Plant response rating, Pigweed [2, 21]: 100
- Plant response rating, Crabgrass, Large [3, 14]: 25
- Plant response rating, Crabgrass, Large [3, 15]: 35
- Plant response rating, Crabgrass, Large [3, 16]: 35
- Plant response rating, Crabgrass, Large [3, 22]: 85
- Plant response rating, Crabgrass, Large [3, 18]: 100
- Plant response rating, Crabgrass, Large [3, 19]: 100
- Plant response rating, Crabgrass, Large [3, 20]: 100
- Plant response rating, Crabgrass, Large [3, 21]: 100
- Plant response rating, Galium [4, 14]: 70
- Plant response rating, Galium [4, 15]: 70
- Plant response rating, Galium [4, 16]: 90
- Plant response rating, Galium [4, 17]: 90
- Plant response rating, Galium [4, 18]: 60
- Plant response rating, Galium [4, 19]: 100
- Plant response rating, Galium [4, 20]: 100
- Plant response rating, Galium [4, 21]: 100
- Plant response rating, Barnyardgrass [5, 10]: 80
- Barnyardgrass plant response rating [5, 11]: 90
- Plant response rating, Barnyardgrass [5, 12]: 90
- Plant response rating, Barnyardgrass [5, 13]: 100
- Plant response rating, Corn (corn (Zea mays); [10]): 20
- Corn plant response rating (corn (Zea mays); [11]): 50
- Plant response rating, Corn (corn (Zea mays); [12]): 20
- Plant response rating, Corn (corn (Zea mays); [13]): 30
- Plant response rating, Johnsongrass [6, 14]: 20
- Plant response rating, Johnsongrass [6, 15]: 30
- Plant response rating, Johnsongrass [6, 16]: 50
- Plant response rating, Johnsongrass [6, 17]: 75
- Plant response rating, Johnsongrass [6, 18]: 10
- Plant response rating, Johnsongrass [6, 19]: 35
- Plant response rating, Johnsongrass [6, 20]: 80
- Plant response rating, Johnsongrass [6, 21]: 95
- Plant response rating, Kochia (kochia (Kochia scoparia); [23]): 90
- Plant response rating, Kochia (kochia (Kochia scoparia); [24]): 90
- Plant response rating, Kochia (kochia (Kochia scoparia); [25]): 90
- Plant response rating, Kochia (kochia (Kochia scoparia); [26]): 95
- Plant response rating, Ryegrass, Italian [7, 14]: 10
- Plant response rating, Ryegrass, Italian [7, 15]: 15
- Plant response rating, Ryegrass, Italian [7, 16]: 20
- Plant response rating, Ryegrass, Italian [7, 17]: 40
- Plant response rating, Ryegrass, Italian [7, 18]: 65
- Plant response rating, Ryegrass, Italian [7, 19]: 80
- Plant response rating, Ryegrass, Italian [7, 20]: 90
- Plant response rating, Ryegrass, Italian [7, 21]: 95
- Plant response rating, Nutsedge, Yellow [8, 14]: 10
- Plant response rating, Nutsedge, Yellow [8, 15]: 10
- Plant response rating, Nutsedge, Yellow [8, 16]: 10
- Plant response rating, Nutsedge, Yellow [8, 17]: 10
- Plant response rating, Nutsedge, Yellow [8, 18]: 0
- Plant response rating, Nutsedge, Yellow [8, 19]: 0
- Plant response rating, Nutsedge, Yellow [8, 20]: 5
- Plant response rating, Nutsedge, Yellow [8, 21]: 5
- Plant response rating, Wheat [9, 14]: 10
- Plant response rating, Wheat [9, 15]: 20
- Plant response rating, Wheat [9, 16]: 20
- Plant response rating, Wheat [9, 17]: 30
- Plant response rating, Wheat [9, 18]: 5
- Plant response rating, Wheat [9, 19]: 10
- Plant response rating, Wheat [9, 20]: 35
- Plant response rating, Wheat [9, 21]: 40

Source: patent US9302999B2, “Substituted triazoles as herbicides” (E. I. DU PONT DE NEMOURS AND COMPANY, priority 2012, dated 2016)
